Experiments:
PIKFYVE [1] = target: T1, PIKFYVE (Homo sapiens, UniProt Q9Y2I7); test: PIKFYVE assay (luciferase ADP-Glo kinase assay, Promega); type: biochemical
In short: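 Kinase activity measured with a luciferase-based ADP-Glo read-out, which quantifies ADP formed by the enzyme.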

PIKFYVE [2] = target: T1, PIKFYVE; test: Cell-based Pikfyve inhibition activity assay (EEA1 staining, mean vesicle size in BJ fibroblast cells); conditions: Table 4, 4 hours treatment, 3 μM Apilimod = 100% inhibition
Protocol: BJ fibroblast cells were obtained from American Type Cell Culture (ATCC, CRL-2522). The cells were maintained in DMEM (Genesee Scientific, 25-500) supplemented with 10% fetal bovine serum (Genesee Scientific, 25-514) and 1% penicillin-streptomycin (Genesee Scientific, 25-512) at 37° C. in the atmosphere 5% CO2. BJ fibroblasts were plated into black flat clear bottom 96-well plates (Grenier, 655090) at a density of 3×10^3 per well and were allowed to attach in culture for 8-10 hours before drug treatment. Drugs were tested at eleven doses separated by 3 fold from 0.03 nM to 3000 nM in triplicates for 4 hours at 37° C. After 4 hours, treatment media was aspirated and replaced with 4% Paraformaldehyde (Electron Microscopy Science, 15714-S) and cells were fixed at room temperature for 5 minutes. 4% PFA in wells were then discarded and replaced with a blocking buffer consisting of 1×PBS with 0.1% Tween (Sigma-Aldrich, P1754-500), 5% Donkey Serum (Jackson ImmunoResearch, 017-000-121), and 1% BSA (Caisson Labs, B005-50GM) and incubated at room temperature for 30 minutes. Blocking buffer was then discarded and replaced with a primary EEA1 antibody (Fisher Scientific, BD610457) in a 1:1000 dilution and incubated at 4° C. overnight. Following overnight incubation, plates were washed with 1×PBS three times and incubated with secondary antibody Donkey anti-Mouse IgG, Alexa Fluor 555 (Invitrogen, A31570) (1:1000 dilution) for 1 hour at room temperature in the dark. Subsequently cell plates were washed with 1×PBS three times and can be stored at 4° C. if not being proceeding with imaging procedure.
Images were acquired with 20× objective (ImageXpress MicroConfocal, Molecular Devices) creating z-series of 5 planes (5 steps, […]), 16 tiles per well. Images were then analyzed using a custom CellProfiler protocol to obtain mean vesicle size. The mean vesicle size from 16 images was used as the output for each well. The mean vesicle size from 0.5% DMSO treated condition was considered as having no Pikfyve inhibition activity and the 3 μM Apilimod treated condition was considered as having 100% inhibition activity. The mean vesicle size was converted to % inhibition activity and the data was fitted to a dose-response curve using log(inhibitor) vs normalized response-variable slope using GraphPad Prism.

T1 sequence (Q9Y2I7 whole entry): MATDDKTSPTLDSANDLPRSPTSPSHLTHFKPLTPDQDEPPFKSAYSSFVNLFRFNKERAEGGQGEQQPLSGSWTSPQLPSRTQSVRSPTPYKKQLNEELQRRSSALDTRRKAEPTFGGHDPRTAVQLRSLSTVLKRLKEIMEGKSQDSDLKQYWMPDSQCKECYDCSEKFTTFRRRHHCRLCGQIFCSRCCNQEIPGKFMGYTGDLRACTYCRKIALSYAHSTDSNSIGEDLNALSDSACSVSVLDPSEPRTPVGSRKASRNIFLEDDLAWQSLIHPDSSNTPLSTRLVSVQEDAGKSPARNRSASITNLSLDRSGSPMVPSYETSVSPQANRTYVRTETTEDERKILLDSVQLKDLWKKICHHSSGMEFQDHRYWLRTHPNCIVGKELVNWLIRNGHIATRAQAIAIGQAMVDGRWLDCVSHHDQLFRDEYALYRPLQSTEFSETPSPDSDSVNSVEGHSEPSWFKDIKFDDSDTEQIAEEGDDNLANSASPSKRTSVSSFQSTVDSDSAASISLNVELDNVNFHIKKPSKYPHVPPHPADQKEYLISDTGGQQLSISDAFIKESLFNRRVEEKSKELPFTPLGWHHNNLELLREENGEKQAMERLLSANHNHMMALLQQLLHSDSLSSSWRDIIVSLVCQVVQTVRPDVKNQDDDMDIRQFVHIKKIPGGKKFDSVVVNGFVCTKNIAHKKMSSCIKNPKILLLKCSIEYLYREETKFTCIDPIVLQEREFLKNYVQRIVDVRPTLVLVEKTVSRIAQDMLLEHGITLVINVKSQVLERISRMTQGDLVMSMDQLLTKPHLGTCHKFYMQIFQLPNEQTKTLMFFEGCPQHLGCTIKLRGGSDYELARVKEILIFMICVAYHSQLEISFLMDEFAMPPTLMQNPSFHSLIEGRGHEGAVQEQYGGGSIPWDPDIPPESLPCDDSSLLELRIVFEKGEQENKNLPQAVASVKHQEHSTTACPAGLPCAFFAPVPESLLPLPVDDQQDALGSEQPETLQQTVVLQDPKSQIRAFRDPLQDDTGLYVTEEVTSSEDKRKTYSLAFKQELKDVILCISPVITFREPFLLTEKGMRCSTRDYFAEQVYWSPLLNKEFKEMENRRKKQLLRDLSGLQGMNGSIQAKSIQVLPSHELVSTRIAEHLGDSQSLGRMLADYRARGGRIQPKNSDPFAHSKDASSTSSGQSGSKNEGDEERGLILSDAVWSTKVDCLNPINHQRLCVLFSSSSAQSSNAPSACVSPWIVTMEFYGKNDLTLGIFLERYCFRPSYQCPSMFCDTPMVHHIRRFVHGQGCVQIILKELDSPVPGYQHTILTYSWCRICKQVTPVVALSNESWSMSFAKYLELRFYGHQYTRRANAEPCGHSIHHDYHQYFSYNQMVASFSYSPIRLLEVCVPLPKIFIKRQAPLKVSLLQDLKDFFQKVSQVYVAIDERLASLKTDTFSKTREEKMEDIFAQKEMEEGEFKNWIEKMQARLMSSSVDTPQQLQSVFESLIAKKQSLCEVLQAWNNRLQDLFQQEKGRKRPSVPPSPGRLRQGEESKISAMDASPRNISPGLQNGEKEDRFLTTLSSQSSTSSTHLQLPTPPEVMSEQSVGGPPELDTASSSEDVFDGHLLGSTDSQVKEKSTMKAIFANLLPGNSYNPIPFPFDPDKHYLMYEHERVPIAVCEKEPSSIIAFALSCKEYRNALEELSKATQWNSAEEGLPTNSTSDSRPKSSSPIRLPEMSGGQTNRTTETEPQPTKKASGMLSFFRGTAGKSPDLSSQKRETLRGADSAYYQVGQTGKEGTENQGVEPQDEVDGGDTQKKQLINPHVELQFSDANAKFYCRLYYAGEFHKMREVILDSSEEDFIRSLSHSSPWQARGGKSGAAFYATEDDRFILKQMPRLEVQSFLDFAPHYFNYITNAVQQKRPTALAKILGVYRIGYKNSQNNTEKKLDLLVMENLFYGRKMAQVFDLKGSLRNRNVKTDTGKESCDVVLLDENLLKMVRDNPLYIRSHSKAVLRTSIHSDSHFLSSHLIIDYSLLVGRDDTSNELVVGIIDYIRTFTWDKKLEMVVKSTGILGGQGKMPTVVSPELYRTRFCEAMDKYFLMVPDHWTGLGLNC

Row | IC50 (PIKFYVE [1]; Table 2) [nM] | EC50 (PIKFYVE [2]) [nM] | IC50 (PIKFYVE [1]; Table 3) [nM] | SMILES
1 | < 5 | 20 to 100 | – | Cc1cccc(-c2cc(CN(C)C)n(-c3cc(N4CCOCC4)nc(OCCc4cnn(C)c4)n3)n2)c1 [Compound 86, N,N-dimethyl-1-(1-(2-(2-(1-methyl-1H-pyrazol-4-yl)ethoxy)-6-morpholinopyrimidin-4-yl)-3-(m-tolyl)-1H-pyrazol-5-yl)methanamine]
2 | 101 to 1000 | 100 to 500 | – | COc1cc(N2CCOCC2)nc(-n2ccc(-c3cccc(C)c3)n2)n1 [Compound 87, 4-(6-methoxy-2-(3-(m-tolyl)-1H-pyrazol-1-yl)pyrimidin-4-yl)morpholine]
3 | < 5 | 100 to 500 | – | CC(=O)c1nc(N2CCOCC2)cc(-n2ccc(-c3cccc(C)c3)n2)n1 [Compound 88, 1-(4-morpholino-6-(3-(m-tolyl)-1H-pyrazol-1-yl)pyrimidin-2-yl)ethan-1-one]
4 | < 5 | < 20 | – | CC(=O)NCCOc1nc(N2CCOCC2)cc(-n2ccc(-c3cccc(C)c3)n2)n1 [Compound 90, N-(2-((4-morpholino-6-(3-(m-tolyl)-1H-pyrazol-1-yl)pyrimidin-2-yl)oxy)ethyl) acetamide]
5 | – | 100 to 500 | 10 to 100 | Cc1cccc(-c2ccn(-c3cc(N4CCOCC4)nc(OCCOc4ccccc4)n3)n2)c1 [Compound 93, 4-(2-(2-phenoxyethoxy)-6-(3-(m-tolyl)-1H-pyrazol-1-yl)pyrimidin-4-yl)morpholine]
6 | – | < 20 | < 3 | Cc1cccc(-c2ccn(-c3cc(N4CCOCC4)nc(OCCc4cnccn4)n3)n2)c1 [Compound 94, 4-(2-(2-(pyrazin-2-yl)ethoxy)-6-(3-(m-tolyl)-1H-pyrazol-1-yl)pyrimidin-4-yl)morpholine]

The remaining lines, values behind:

Row | SMILES | IC50 (PIKFYVE [1]; Table 2) [nM] | EC50 (PIKFYVE [2]) [nM] | IC50 (PIKFYVE [1]; Table 3) [nM]
7 | Cc1cccc(-c2ccn(-c3cc(N4CCOCC4)nc(C(O)CC#N)n3)n2)c1 (stereo not drawn) [Compound 76, 3-hydroxy-3-(4-morpholino-6-(3-(m-tolyl)-1H-pyrazol-1-yl)pyrimidin-2-yl)propanenitrile] | < 5 | 20 to 100 | –
8 | COCc1cc(-c2ccccc2)n(-c2cc(N3CCOCC3)nc(OCCc3cnn(C)c3)n2)n1 [Compound 77, 4-(6-(3-(methoxymethyl)-5-phenyl-1H-pyrazol-1-yl)-2-(2-(1-methyl-1H-pyrazol-4-yl)ethoxy)pyrimidin-4-yl)morpholine] | 5 to 100 | 500 to 5000 | –
9 | COC(c1ccccc1)c1nc(N2CCOCC2)cc(-n2ccc(-c3ccccc3)n2)n1 (stereo not drawn) [Compound 78, 4-(2-(methoxy(phenyl)methyl)-6-(3-phenyl-1H-pyrazol-1-yl)pyrimidin-4-yl)morpholine] | 5 to 100 | 500 to 5000 | –
10 | Cn1cc(C(O)CCc2nc(N3CCOCC3)cc(-n3ccc(-c4ccccc4)n3)n2)cn1 (stereo not drawn) [Compound 79, 1-(1-methyl-1H-pyrazol-4-yl)-3-(4-morpholino-6-(3-phenyl-1H-pyrazol-1-yl)pyrimidin-2-yl)propan-1-ol] | < 5 | 100 to 500 | –
11 | Cn1cc(C(O)C#Cc2nc(N3CCOCC3)cc(-n3ccc(-c4ccccc4)n3)n2)cn1 (stereo not drawn) [Compound 80, 1-(1-methyl-1H-pyrazol-4-yl)-3-(4-morpholino-6-(3-phenyl-1H-pyrazol-1-yl)pyrimidin-2-yl)prop-2-yn-1-ol] | < 5 | 20 to 100 | –
12 | Cc1cccc(-c2ccn(-c3cc(N4CCOCC4)nc(C)n3)n2)c1 [Compound 81, 4-(2-methyl-6-(3-(m-tolyl)-1H-pyrazol-1-yl)pyrimidin-4-yl)morpholine] | < 5 | 100 to 500 | –
13 | Cc1cccc(-c2ccn(-c3cc(N4CCOCC4)nc(C(F)(F)F)n3)n2)c1 [Compound 82] | 5 to 100 | 500 to 5000 | –
14 | COc1nc(N2CCOCC2)c(C)c(-n2ccc(-c3cccc(C)c3)n2)n1 [Compound 83, 4-(2-methoxy-5-methyl-6-(3-(m-tolyl)-1H-pyrazol-1-yl)pyrimidin-4-yl)morpholine] | 101 to 1000 | > 5000 | –
15 | CNc1nc(N2CCOCC2)cc(-n2nc(-c3ccccc3)cc2C)n1 [Compound 85] | 101 to 1000 | 500 to 5000 | –

Source: patent US20230135152A1 (ACURASTEM INCORPORATED, priority 2020, published 2023)
